Data on 13 molecules can be found in ChEMBL document CHEMBL1142990, “Self-organizing maps for identification of new inhibitors of P-glycoprotein” (J Med Chem, 2007).

For the experiment, the target named is ATP-dependent translocase ABCB1 (Homo sapiens, UniProt P08183). Description: Inhibition of P-glycoprotein expressed in MDR CCRF vcr1000 cells by daunorubicin efflux assay.
Chain of ATP-dependent translocase ABCB1 (P08183 whole entry): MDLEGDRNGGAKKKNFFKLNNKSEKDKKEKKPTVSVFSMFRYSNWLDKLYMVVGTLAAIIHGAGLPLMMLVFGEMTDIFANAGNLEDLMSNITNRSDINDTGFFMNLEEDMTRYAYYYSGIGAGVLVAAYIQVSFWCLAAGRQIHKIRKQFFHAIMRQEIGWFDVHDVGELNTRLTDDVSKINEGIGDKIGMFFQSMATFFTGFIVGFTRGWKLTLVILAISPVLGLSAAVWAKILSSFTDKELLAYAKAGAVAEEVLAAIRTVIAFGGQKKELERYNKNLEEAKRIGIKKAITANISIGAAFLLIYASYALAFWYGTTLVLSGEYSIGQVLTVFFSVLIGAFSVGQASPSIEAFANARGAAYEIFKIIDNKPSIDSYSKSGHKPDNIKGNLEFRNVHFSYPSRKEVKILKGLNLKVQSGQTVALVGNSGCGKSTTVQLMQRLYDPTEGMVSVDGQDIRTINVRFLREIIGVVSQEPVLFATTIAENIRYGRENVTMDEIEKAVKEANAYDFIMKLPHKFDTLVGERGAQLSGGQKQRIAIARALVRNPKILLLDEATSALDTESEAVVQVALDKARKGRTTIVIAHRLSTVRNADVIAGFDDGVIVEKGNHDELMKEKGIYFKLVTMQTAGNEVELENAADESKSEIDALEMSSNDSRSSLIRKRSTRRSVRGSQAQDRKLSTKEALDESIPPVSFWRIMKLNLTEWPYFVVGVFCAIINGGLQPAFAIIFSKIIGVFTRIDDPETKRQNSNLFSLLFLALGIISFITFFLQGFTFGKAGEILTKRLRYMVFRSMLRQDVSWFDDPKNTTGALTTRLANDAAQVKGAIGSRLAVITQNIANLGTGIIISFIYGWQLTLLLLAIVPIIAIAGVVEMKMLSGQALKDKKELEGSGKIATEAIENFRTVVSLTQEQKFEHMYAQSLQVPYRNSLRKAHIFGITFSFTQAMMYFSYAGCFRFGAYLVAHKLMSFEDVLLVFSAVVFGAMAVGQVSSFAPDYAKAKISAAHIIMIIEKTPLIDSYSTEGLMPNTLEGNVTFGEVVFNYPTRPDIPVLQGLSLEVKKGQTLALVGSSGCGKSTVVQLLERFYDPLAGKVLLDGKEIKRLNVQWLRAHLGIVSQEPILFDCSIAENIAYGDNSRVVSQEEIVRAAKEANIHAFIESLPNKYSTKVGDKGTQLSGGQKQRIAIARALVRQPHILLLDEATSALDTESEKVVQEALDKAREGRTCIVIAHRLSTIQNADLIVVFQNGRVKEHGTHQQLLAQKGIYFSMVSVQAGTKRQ

As a reminder, the EC50 is the concentration giving half of the maximal effect. Consider `CCCN(CC(O)COc1ccccc1C(=O)CCc1ccccc1)C(=O)c1ccccc1` (stereo not drawn), for which the EC50 amounted to 1690 nM.

In turn, `CCCCOc1ccc(C(=O)Nc2ccc3nc(SCc4c(C)cc(C)c(C(C)=O)c4C)sc3c2)cc1` displayed a 50% effective concentration (EC50) of 97 nM.

`O=C(CCc1ccccc1)c1cccc(OCC(O)CN2CCCCC2)c1` (stereo not drawn) registered an EC50 of 424 nM.

The molecule `COc1ccccc1N1CCN(CC(O)COc2ccccc2C(=O)CCc2ccccc2)CC1` (stereo not drawn) yielded an EC50 of 230 nM. Against the preceding molecule, the EC50 is about 1.8-fold lower.

`Cc1ccc(CCC(=O)c2ccccc2OCC(O)CN2CCN(c3ccccc3C)CC2)cc1` (stereo not drawn): the response was half-maximal at 18 nM (EC50).

`O=C(CCc1ccccc1)c1cccc(OCC(O)CN2CCOCC2)c1` (stereo not drawn) had an EC50 of 3480 nM.

On to `CCN(CC)CC(O)COc1ccccc1C(=O)CCc1ccccc1` (stereo not drawn), for which the response was half-maximal at 907 nM (EC50).

For the molecule `CC(=O)OC(COc1ccccc1C(=O)CCc1ccccc1)CN1CCCCC1` (stereo not drawn), the midpoint of the response, the EC50, lay at 336 nM.

Regarding `CC(=O)c1cccc(OCC(O)CN2CCN(c3ccccc3C)CC2)c1` (stereo not drawn), the half-maximal effective concentration (EC50) was found to be 537 nM.

The molecule `c1ccc(CCc2c(CCN3CCCCC3)oc3ccccc23)cc1` displayed an EC50 of 980 nM. Compared with the last molecule, the EC50 is about 1.8-fold higher.

Regarding `O=C(CCc1cccc2ccccc12)c1ccccc1OCC(O)CNCCC(c1ccccc1)c1ccccc1` (stereo not drawn), the response was half-maximal at 723 nM (EC50).

In turn, `O=C(CCc1ccccc1)c1cc(O)ccc1OCC(O)CN1CCCCC1` (stereo not drawn) registered a concentration for a half-maximal effect (EC50) of 1730 nM.

Turning to `CCCNCC(O)COc1ccc(O)cc1C(=O)CCc1ccccc1` (stereo not drawn) [5-HYDROXY PROPAFENONE], a half-maximal response (EC50) required 3020 nM.
